The target in one test is Adenosine receptor A3 (Homo sapiens, UniProt P0DMS8). In words: Cerep profiling assay (ADORA3). On the set-up: compound concentration 10 uM.
Test [1] has as its target Tyrosine-protein kinase ABL1 (Homo sapiens, UniProt P00519). In words: ABL Invitrogen kinase activity assay.
Test [2] deals with T1, Aurora kinase A (Homo sapiens) (UniProt O14965).
T1 sequence (whole entry): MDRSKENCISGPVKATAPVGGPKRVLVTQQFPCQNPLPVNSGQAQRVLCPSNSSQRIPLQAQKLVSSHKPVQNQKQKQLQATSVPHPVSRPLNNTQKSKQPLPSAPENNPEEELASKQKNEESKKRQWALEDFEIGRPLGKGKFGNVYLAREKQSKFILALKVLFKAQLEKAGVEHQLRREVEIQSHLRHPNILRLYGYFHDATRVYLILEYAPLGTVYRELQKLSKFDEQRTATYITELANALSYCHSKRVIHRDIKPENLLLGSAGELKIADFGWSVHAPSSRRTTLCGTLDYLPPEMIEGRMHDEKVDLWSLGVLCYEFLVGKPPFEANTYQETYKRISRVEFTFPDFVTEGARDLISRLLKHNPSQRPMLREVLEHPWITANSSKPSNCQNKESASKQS
In words: (§1) Aurora-A Invitrogen kinase activity assay. The settings on record: Compound concentration 1.0 uM.

The target in the next test is Aurora kinase A (Homo sapiens, UniProt O14965). The description is as §1.
The target of test [3] is Tyrosine-protein kinase BTK (Homo sapiens) (UniProt Q06187). As to the kind of experiment: BTK Invitrogen kinase activity assay. The following applies: Compound concentration 1.0 uM.
In test [4] the target is Dual specificity protein kinase CLK1 (Homo sapiens, UniProt P49759). As to the kind of experiment: CLK1 Invitrogen kinase activity assay.
In test [5] the target is Ephrin type-A receptor 2 (Homo sapiens) (UniProt P29317). In words: ECK Invitrogen kinase activity assay. The settings on record: Compound concentration 1.0 uM.
In test [6] the target is Mitogen-activated protein kinase kinase kinase 9 (Homo sapiens, UniProt P80192). As to the kind of experiment: MAP3K9 Invitrogen kinase activity assay.
Test [7] deals with Mitogen-activated protein kinase kinase kinase kinase 4 (Homo sapiens) (UniProt O95819). In words: MAP4K4 Invitrogen kinase activity assay. The settings on record: Compound concentration 1.0 uM.
Test [8] addresses Serine/threonine-protein kinase MARK1 (Homo sapiens, UniProt Q9P0L2). As to the kind of experiment: MARK1 Invitrogen kinase activity assay.
Test [9] addresses cAMP-dependent protein kinase catalytic subunit alpha (Homo sapiens) (UniProt P17612). In words: PKACa Invitrogen kinase activity assay. The following applies: Compound concentration 1.0 uM.
Test [10] concerns the target Protein kinase C beta type (Homo sapiens) (UniProt P05771). As to the kind of experiment: PKCbeta II Invitrogen kinase activity assay. The settings on record: Compound concentration 1.0 uM.
Test [11] has as its target Protein kinase C zeta type (Homo sapiens) (UniProt Q05513). As to the kind of experiment: PKCzeta Invitrogen kinase activity assay. The following applies: Compound concentration 1.0 uM.
Test [12] relates to Ribosomal protein S6 kinase beta-1 (Homo sapiens), P23443 [UNDEFINED MUTATION]. In words: S6K T389D D3E Invitrogen kinase activity assay. The settings on record: Compound concentration 1.0 uM.
For test [13], the target named is D(3) dopamine receptor (Homo sapiens) (UniProt P35462). The settings on record: Compound concentration 10.0 uM.
Sequence of D(3) dopamine receptor (Homo sapiens) (P35462 whole entry): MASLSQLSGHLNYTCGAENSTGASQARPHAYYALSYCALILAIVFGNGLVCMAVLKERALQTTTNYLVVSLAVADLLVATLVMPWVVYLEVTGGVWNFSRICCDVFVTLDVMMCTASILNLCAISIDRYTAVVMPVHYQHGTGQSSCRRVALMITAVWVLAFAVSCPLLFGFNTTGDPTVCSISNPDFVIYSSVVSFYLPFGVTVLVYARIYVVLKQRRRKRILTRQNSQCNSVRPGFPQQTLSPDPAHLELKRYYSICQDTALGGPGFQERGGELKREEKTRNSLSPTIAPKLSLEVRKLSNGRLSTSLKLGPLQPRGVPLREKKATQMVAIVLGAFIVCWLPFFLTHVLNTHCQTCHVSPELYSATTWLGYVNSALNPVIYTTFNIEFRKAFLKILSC
Test [14] concerns the target Kappa-type opioid receptor (Homo sapiens) (UniProt P41145). The settings on record: Compound concentration 10.0 uM.
The target in test [15] is T2, Tyrosine-protein kinase JAK3 (Homo sapiens) (UniProt P52333).
T2 sequence (whole entry): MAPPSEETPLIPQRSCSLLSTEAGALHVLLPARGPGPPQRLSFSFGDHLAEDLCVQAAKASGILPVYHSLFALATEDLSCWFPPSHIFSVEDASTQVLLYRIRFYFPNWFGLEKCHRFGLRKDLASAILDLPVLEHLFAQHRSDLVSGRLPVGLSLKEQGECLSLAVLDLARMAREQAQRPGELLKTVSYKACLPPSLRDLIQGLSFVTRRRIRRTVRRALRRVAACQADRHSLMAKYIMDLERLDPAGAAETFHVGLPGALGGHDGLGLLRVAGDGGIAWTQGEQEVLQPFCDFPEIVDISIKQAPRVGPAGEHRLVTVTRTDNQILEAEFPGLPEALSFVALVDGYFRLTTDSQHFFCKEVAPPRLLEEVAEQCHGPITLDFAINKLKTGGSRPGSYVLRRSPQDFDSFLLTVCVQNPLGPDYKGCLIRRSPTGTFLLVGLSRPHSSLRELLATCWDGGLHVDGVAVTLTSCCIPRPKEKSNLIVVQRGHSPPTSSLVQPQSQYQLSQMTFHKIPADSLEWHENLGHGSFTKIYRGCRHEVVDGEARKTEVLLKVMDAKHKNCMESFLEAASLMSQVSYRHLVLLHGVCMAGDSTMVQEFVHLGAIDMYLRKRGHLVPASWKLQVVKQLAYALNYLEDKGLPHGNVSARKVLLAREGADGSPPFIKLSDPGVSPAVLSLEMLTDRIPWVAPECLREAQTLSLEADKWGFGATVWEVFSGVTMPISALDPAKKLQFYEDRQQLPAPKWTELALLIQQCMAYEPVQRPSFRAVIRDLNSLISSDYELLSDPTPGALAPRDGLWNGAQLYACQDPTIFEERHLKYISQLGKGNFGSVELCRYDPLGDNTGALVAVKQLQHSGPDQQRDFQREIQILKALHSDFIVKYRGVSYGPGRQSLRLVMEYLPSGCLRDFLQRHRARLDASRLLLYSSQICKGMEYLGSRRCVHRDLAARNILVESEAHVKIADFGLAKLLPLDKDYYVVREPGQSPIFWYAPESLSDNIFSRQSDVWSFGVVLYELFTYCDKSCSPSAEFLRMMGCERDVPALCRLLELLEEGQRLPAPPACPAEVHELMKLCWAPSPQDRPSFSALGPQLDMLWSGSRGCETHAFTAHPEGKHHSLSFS
The settings on record: Compound concentration 1.0 uM.

Test [16] deals with 3-phosphoinositide-dependent protein kinase 1 (Homo sapiens) (UniProt O15530). In words: PDK1 Invitrogen kinase activity assay. The following applies: Compound concentration 1.0 uM.
The next test concerns the target Focal adhesion kinase 1 (Homo sapiens, UniProt Q05397). As to the kind of experiment: Binding assay (PTK2).
For test [17], the target named is Mu-type opioid receptor (Homo sapiens) (UniProt P35372). The settings on record: Compound concentration 10.0 uM.
Sequence of Mu-type opioid receptor (Homo sapiens) (P35372 whole entry): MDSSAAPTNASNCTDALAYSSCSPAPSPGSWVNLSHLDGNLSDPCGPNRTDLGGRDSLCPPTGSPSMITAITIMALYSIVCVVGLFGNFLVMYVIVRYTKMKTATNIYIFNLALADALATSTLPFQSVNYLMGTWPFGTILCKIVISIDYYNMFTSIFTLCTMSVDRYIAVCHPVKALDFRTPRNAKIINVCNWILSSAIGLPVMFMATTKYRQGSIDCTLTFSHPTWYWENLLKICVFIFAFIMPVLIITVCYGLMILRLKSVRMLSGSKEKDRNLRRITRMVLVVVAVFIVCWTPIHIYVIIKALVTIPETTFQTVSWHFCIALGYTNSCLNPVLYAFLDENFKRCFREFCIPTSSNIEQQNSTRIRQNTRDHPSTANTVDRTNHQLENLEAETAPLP

Sequence of Tyrosine-protein kinase ABL1 (P00519 whole entry): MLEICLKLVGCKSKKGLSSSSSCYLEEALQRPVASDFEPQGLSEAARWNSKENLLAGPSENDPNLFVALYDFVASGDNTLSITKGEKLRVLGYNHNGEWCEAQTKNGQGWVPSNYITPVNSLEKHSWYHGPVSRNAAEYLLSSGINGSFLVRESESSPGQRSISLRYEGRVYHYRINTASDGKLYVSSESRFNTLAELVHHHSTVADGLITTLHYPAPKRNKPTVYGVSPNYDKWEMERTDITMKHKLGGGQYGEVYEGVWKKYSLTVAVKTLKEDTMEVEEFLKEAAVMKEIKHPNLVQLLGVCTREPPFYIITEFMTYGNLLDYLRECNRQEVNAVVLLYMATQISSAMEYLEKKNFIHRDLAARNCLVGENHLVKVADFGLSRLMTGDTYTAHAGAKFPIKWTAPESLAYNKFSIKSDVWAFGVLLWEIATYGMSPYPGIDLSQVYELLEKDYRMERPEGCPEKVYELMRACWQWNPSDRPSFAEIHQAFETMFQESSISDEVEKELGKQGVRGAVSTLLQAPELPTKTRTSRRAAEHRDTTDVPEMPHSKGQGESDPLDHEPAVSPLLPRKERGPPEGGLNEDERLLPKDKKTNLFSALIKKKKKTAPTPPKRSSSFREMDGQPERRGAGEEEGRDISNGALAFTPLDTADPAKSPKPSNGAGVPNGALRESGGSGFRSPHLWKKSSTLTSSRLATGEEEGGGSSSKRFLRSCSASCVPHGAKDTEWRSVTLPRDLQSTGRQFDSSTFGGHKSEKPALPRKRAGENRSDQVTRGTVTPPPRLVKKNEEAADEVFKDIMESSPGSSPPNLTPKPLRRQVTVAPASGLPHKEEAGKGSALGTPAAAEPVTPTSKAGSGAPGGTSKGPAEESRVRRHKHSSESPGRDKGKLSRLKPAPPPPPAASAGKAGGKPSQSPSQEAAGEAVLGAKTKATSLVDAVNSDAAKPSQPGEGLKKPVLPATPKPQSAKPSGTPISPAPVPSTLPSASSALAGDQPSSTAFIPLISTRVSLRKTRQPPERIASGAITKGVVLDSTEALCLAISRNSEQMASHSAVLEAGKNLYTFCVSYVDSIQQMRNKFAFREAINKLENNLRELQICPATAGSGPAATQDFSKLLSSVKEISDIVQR
Sequence of Focal adhesion kinase 1 (Q05397 whole entry): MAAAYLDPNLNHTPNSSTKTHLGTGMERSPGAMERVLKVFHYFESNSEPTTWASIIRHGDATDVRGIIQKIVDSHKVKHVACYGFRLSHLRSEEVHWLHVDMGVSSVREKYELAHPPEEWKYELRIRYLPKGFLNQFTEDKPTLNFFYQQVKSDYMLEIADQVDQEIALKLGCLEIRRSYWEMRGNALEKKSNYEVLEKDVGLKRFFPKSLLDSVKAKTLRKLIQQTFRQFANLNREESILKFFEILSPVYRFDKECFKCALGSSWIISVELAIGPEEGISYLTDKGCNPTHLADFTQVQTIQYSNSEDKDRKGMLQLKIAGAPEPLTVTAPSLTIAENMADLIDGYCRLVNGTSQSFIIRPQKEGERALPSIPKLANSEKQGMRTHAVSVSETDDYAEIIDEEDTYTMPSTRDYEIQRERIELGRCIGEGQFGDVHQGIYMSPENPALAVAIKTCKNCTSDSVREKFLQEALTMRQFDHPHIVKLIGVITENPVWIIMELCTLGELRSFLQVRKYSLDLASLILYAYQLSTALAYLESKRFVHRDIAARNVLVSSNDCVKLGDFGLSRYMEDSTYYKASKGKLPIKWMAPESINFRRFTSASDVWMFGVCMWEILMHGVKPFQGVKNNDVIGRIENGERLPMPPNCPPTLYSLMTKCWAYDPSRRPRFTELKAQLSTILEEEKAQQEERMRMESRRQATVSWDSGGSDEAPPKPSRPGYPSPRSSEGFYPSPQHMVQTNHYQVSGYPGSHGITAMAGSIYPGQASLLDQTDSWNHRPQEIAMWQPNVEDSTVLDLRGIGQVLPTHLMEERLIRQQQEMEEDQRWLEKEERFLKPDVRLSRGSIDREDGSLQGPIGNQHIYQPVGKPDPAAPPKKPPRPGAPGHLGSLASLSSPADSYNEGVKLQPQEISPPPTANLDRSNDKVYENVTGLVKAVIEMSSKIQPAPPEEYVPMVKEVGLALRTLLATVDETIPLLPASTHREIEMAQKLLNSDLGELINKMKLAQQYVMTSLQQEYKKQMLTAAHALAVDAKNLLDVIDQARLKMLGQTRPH
Sequence of Protein kinase C zeta type (Homo sapiens) (Q05513 whole entry): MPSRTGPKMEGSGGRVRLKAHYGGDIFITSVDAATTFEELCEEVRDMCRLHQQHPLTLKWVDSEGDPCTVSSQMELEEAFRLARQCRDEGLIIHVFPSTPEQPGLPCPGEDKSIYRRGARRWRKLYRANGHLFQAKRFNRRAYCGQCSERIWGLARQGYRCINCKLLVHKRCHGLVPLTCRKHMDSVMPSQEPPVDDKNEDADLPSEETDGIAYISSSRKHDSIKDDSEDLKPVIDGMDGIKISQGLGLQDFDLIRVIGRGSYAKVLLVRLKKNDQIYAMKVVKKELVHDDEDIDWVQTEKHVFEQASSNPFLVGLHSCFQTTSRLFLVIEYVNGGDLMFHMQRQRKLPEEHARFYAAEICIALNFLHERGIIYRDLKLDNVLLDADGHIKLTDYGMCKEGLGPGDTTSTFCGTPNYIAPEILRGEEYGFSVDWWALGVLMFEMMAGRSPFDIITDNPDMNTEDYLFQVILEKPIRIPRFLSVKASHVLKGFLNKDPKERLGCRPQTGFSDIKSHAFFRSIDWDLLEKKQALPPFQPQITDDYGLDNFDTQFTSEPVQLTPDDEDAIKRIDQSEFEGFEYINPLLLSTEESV
Sequence of Protein kinase C beta type (Homo sapiens) (P05771 2-671 limits assumed): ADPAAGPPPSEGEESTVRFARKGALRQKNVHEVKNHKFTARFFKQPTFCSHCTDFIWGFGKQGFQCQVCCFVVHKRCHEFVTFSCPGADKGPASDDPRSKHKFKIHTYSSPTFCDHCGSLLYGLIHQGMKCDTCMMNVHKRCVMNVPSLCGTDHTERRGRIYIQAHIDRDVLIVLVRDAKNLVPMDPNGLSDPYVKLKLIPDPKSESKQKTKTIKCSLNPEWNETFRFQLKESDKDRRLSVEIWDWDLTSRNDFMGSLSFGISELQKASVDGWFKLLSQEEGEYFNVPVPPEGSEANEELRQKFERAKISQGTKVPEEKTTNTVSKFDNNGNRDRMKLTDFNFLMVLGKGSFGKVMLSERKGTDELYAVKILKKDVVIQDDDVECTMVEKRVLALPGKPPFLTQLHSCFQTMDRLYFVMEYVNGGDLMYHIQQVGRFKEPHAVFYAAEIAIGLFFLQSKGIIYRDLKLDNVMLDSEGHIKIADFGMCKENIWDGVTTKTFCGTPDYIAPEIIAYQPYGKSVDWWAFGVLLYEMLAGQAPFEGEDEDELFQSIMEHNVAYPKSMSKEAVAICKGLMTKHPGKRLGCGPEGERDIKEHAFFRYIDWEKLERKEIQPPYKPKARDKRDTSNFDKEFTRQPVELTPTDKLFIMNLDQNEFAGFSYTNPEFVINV
Sequence of Adenosine receptor A3 (P0DMS8 whole entry): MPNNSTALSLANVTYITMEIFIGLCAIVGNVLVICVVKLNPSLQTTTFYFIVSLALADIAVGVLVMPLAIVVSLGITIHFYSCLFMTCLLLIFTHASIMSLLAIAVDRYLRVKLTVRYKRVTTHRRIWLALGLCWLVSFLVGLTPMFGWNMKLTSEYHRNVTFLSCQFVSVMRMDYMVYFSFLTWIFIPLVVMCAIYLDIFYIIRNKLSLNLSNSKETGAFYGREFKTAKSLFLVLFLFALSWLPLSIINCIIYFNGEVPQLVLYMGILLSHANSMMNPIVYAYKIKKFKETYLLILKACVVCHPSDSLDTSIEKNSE
Sequence of Kappa-type opioid receptor (Homo sapiens) (P41145 whole entry): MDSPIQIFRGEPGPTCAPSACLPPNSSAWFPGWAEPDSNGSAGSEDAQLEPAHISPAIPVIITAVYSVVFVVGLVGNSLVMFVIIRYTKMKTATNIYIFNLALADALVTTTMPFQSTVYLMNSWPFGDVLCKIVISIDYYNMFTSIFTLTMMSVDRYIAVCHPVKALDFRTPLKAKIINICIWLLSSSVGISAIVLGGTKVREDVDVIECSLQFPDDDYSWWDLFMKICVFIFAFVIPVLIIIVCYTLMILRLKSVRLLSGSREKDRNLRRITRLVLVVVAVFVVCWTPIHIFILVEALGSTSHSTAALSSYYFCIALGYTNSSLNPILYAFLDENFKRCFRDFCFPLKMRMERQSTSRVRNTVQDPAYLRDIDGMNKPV

What is called Ki is the equilibrium dissociation constant of an inhibitor or competing ligand from its target. A high value points to a looser hold on the target. The term IC50 denotes the point on the concentration scale where inhibition reaches its midpoint. A lower IC50 goes with greater potency. The term inhibition denotes the drop in the measured response relative to a control, in per cent. At Adenosine receptor A3, `CNC(=O)c1ccc(Nc2ncc(C(F)(F)F)c(NCc3nccnc3N(C)S(C)(=O)=O)n2)cc1` [DEFACTINIB] gave a Ki of 27 nM. Further, the concentration for half-maximal inhibition (IC50) in test [1] came to 1640 nM; against Aurora kinase A, 135 nM; in test [4], 250 nM; in test [6] it was 75.3 nM; in test [8] it was 448 nM. Besides, the inhibition in test [1] (Compound concentration 1.0 uM) was 34%; in [2], 87%; in [3] it was 14%; in test [4] (Compound concentration 1.0 uM), 99%; in [5], 18%; in test [6] (Compound concentration 1.0 uM), 98%. Also, the inhibition was 28% in test [7]; 81% in [8] (Compound concentration 1.0 uM); 29% in test [9]; 15% in test [10]; 10% in test [11]; 18% in test [12]. Moreover, the inhibition is 11.3% in test [13], 10.8% in test [14], 94% in test [15] and 25% in test [16].

`CN(c1ccnc(CNc2nc(Nc3ccc4c(c3)CC(=O)N4)ncc2C(F)(F)F)n1)S(C)(=O)=O` [PF-00911705]: on Focal adhesion kinase 1, the IC50 is listed as 721 nM (not active). Further, in [17], the inhibition was 0.77%.

These data come from ChEMBL document CHEMBL4507299, “Data for DCP probe PF-04554878” (2021).
